Values after ≈ are worked out from the molar mass of the structure shown. Values joined by “and” are separate entries in the source; they are usually repeats but may differ in a detail not shown here. Identical values can stand only once. Like-named read-outs stand apart in the source and are kept apart here.
Tests used:
M. smegmatis mc^2155 [1] = assay type: cell-based, Mycobacterium smegmatis; settings: pH 5.5
Mtb H37Rv = experiment: microbe, parasite or virus in culture; assay type: cell-based, Mycobacterium tuberculosis; settings: for MIC99: Mycobacterium tuberculosis, H37RV
[2] = tested on: intracellular Mtb H37Rv in THP-1 cells; assay type: cell-based, Mycobacterium tuberculosis
THP-1 cells = experiment: cells; assay type: cell-based; settings: Homo sapiens, THP-1, 18 h, read-out: IC50 THP-1
[3] = tested on: normal human foreskin fibroblast (HFF) cells; experiment: cells; assay type: cell-based; settings: 48 h, read-out: IC50 HFF
Mtb T 21 (INH-sensitive) = experiment: microbe, parasite or virus in culture; assay type: cell-based; settings: Mycobacterium tuberculosis
[4] = tested on: Mtb Beijing 26 (RIF-sensitive); experiment: microbe, parasite or virus in culture; assay type: cell-based; settings: Mycobacterium tuberculosis
[5] = tested on: Mtb Haarlem 23 (RIF-sensitive); experiment: microbe, parasite or virus in culture; assay type: cell-based; settings: Mycobacterium tuberculosis
PBS-starved H37Rv = assay type: cell-based, Mycobacterium tuberculosis
M. smegmatis mc^2155 [6] = experiment: microbe, parasite or virus in culture; assay type: cell-based, Mycobacterium smegmatis; settings: Mycolicibacterium smegmatis
M. bovis BCG [7] = experiment: microbe, parasite or virus in culture; assay type: cell-based; settings: Mycobacterium tuberculosis variant bovis BCG
M. smegmatis mc^2155 [8] = assay type: cell-based, Mycobacterium smegmatis
M. bovis BCG [9] = assay type: cell-based, Mycobacterium bovis
M. bovis BCG [10] = assay type: cell-based, Mycobacterium bovis; remark: listed apart in the source
Escherichia coli = experiment: microbe, parasite or virus in culture; assay type: cell-based
Staphylococcus aureus = experiment: microbe, parasite or virus in culture; assay type: cell-based
Bacillus subtilis = experiment: microbe, parasite or virus in culture; assay type: cell-based
Pseudomonas aeruginosa = experiment: microbe, parasite or virus in culture; assay type: cell-based
[11] = human
[12] = mouse; for Clint: microsomes
in vitro [13] = settings: human, microsomes
in vitro [14] = settings: mouse, microsomes
in vitro [15] = settings: human, hepatocytes
M. bovis BCG [16] = assay type: cell-based, Mycobacterium bovis; remark: listed apart in the source
M. smegmatis mc^2155 [17] = settings: cited from earlier work

| Compound | MIC99 (Mtb H37Rv; 120 h, read-out: MIC (MIC99)) [µg/mL] | IC50 (THP-1 cells) [µg/mL] | MIC (Mtb T 21 (INH-sensitive)) [µg/mL] | MIC [4] [µg/mL] | MIC [5] [µg/mL] | sensitivity of non-replicating Mtb (PBS-starved H37Rv) | Predicted EH [11] | Predicted EH [12] | Clint [12] [mL/min] | half-life (in vitro [13]) [min] | half-life (in vitro [14]) [min] | further results |
| --- | --- | --- | --- | --- | --- | --- | --- | --- | --- | --- | --- | --- |
| N#CC(C#N)=NNc1cccc(Cl)c1 [CCCP, carbonyl cyanide m-chlorophenylhydrazone] |  |  |  |  |  |  |  |  |  |  |  | intrabacterial pH (M. smegmatis mc^2155 [1]): 5.5 |
| FC(F)(F)Oc1ccc(Oc2ccc(CNCCNC3C4CC5CC(C4)CC3C5)cc2)cc1 (centres unmarked) [Compound 8, N^1-adamantan-2-yl-N^2-(4-(4-(trifluoro-methoxy)phenoxy)benzyl)ethane-1,2-diamine] | 1.2 | 4.4 (≈ 9.55 µM) | 0.58 (≈ 1.26 µM) | 1.2 (≈ 2.61 µM) | 1.2 (≈ 2.61 µM) | sensitive | 0.144 | 0.557 | 113 | 231 | 24.1 | MIC99 (Mtb H37Rv): 2.5 µM; reduction in bacterial cfu compared to untreated infected macrophages [2]: two-log reduction; IC50 [3]: 16.1 µg/mL (≈ 35 µM); reduction in viability of non-replicating Mtb (PBS-starved H37Rv): 3 log; MIC (M. smegmatis mc^2155 [6]): 9.21 µg/mL and 20 µM; MIC (M. bovis BCG [7]): 0.575 µg/mL and 1.25 µM; effect on ΔΨ (red / green fluorescence ratio of DiOC2) (M. smegmatis mc^2155 [8]): rapid depletion of ΔΨ; intrabacterial pH (M. smegmatis mc^2155 [1]): ~7; effect on ΔpH (M. bovis BCG [9]): None of the concentrations tested reduced ΔpH; effect on intracellular ATP (M. bovis BCG [10]): reduces intracellular ATP in a dose-dependent manner; IC50 (Escherichia coli): 6.25 µg/mL (≈ 13.6 µM); IC50 (Staphylococcus aureus): 6.25 µg/mL (≈ 13.6 µM); IC50 (Bacillus subtilis): 6.25 µg/mL (≈ 13.6 µM); IC50 (Pseudomonas aeruginosa): 12.5 µg/mL (≈ 27.1 µM); half-life (in vitro [15]): 190 min |
| CC[C@@H](CO)NCCN[C@@H](CC)CO [EMB, ethambutol] | 2 |  | 0.5 (≈ 2.45 µM) | 1 (≈ 4.89 µM) | 1 (≈ 4.89 µM) | tolerant |  |  |  |  |  |  |
| NNC(=O)c1ccncc1 [INH, isoniazid] |  | 7000 (≈ 51000 µM) | 0.05 (≈ 0.365 µM) | 0.025 (≈ 0.182 µM) | 0.025 (≈ 0.182 µM) | tolerant |  |  |  |  |  | 1×MIC (in vitro MIC) (Mtb H37Rv): 0.05 µg/mL |
| Cc1ncc2n1-c1ccc(Cl)cc1C(c1ccccc1F)=NC2 [Midazolam, midazolam] |  |  |  |  |  |  | 0.920 | 0.924 | 1130 | 3.35 | 2.41 | Clint ([11]; microsomes): 239 mL/min |
| CO[C@H]1/C=C/O[C@@]2(C)Oc3c(C)c(O)c4c(O)c(c(/C=N/N5CCN(C)CC5)c(O)c4c3C2=O)NC(=O)/C(C)=C\C=C\[C@H](C)[C@H](O)[C@@H](C)[C@@H](O)[C@@H](C)[C@H](OC(C)=O)[C@@H]1C [RIF, rifampicin] |  | 240 (≈ 292 µM) | 0.0125 (≈ 0.0152 µM) | 0.0125 (≈ 0.0152 µM) | 0.0125 (≈ 0.0152 µM) | tolerant |  |  |  |  |  | 1×MIC (in vitro MIC) (Mtb H37Rv): 0.025 µg/mL |
| CC(C)=CCC/C(C)=C/CNCCNC1C2CC3CC(C2)CC1C3 (centres unmarked) [SQ109] | 1.56 |  |  |  |  |  | 0.929 | 0.926 | 1118 | 2.97 | 2.44 | MIC (MIC99) (Mtb H37Rv): 1.6 µg/mL (≈ 4.84 µM); effect on ΔΨ (M. bovis BCG [16]): rapidly deplete ΔΨ; effect on ΔΨ and ΔpH (M. smegmatis mc^2155 [17]): rapidly depleted both the transmembrane potential (ΔΨ) and the chemical proton gradient (ΔpH) |

Source: paper PMC6742494 (ACS infectious diseases, 2016)
